Measurements reported in patent US20220119354A1, “DIAMINO-SUBSTITUTED PYRIDINES AND PYRIMIDINES AS HERBICIDES” (FMC Corporation, priority 2019, published 2022).

What was measured:
Format in all cases: in vivo
[1] = tested on: barnyardgrass (Echinochloa crus-galli); test: Test A preemergence, barnyardgrass; settings: 0 to 100 scale, 0 is no effect, 100 is complete control
Method in brief: (§1)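 Pots of loam–sand mix; preemergence directed soil spray at sowing, postemergence spray at one- to two-leaf stage. Readout: visual injury vs untreated controls, ~10 d, 0–100 scale.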

kochia (Kochia scoparia) [2] = test: Test A preemergence, kochia; settings: 0 to 100 scale, 0 is no effect, 100 is complete control
Method in brief: as §1

[3] = tested on: ragweed (common ragweed, Ambrosia elatior); test: Test A preemergence, ragweed; settings: 0 to 100 scale, 0 is no effect, 100 is complete control
Method in brief: as §1

[4] = tested on: ryegrass, Italian (Lolium multiflorum); test: Test A preemergence, Italian ryegrass; settings: 0 to 100 scale, 0 is no effect, 100 is complete control
Method in brief: as §1

[5] = tested on: foxtail, giant (Setaria faberii); test: Test A preemergence, giant foxtail; settings: 0 to 100 scale, 0 is no effect, 100 is complete control
Method in brief: as §1

[6] = tested on: pigweed (Amaranthus retroflexus); test: Test A preemergence, pigweed; settings: 0 to 100 scale, 0 is no effect, 100 is complete control
Method in brief: as §1

[7] = tested on: barnyardgrass (Echinochloa crus-galli); test: Test A postemergence, barnyardgrass; settings: 0 to 100 scale, 0 no effect, 100 complete control
Method in brief: as §1

kochia (Kochia scoparia) [8] = test: Test A postemergence, kochia; settings: 0 to 100 scale, 0 no effect, 100 complete control
Method in brief: as §1

[9] = tested on: ragweed (common ragweed, Ambrosia elatior); test: Test A postemergence, ragweed; settings: 0 to 100 scale, 0 no effect, 100 complete control
Method in brief: as §1

[10] = tested on: ryegrass, Italian (Lolium multiflorum); test: Test A postemergence, Italian ryegrass; settings: 0 to 100 scale, 0 no effect, 100 complete control
Method in brief: as §1

[11] = tested on: foxtail, giant (Setaria faberii); test: Test A postemergence, giant foxtail; settings: 0 to 100 scale, 0 no effect, 100 complete control
Method in brief: as §1

[12] = tested on: pigweed (Amaranthus retroflexus); test: Test A postemergence, pigweed; settings: 0 to 100 scale, 0 no effect, 100 complete control
Method in brief: as §1

[13] = tested on: wheat (Triticum aestivum); test: Test A postemergence, wheat; settings: 0 to 100 scale, 0 no effect, 100 complete control
Method in brief: as §1

corn (Zea mays) = test: Test A postemergence, corn; settings: 0 to 100 scale, 0 no effect, 100 complete control
Method in brief: as §1

[14] = tested on: blackgrass (Alopecurus myosuroides); test: Test A postemergence, blackgrass; settings: 0 to 100 scale, 0 no effect, 100 complete control
Method in brief: as §1

[15] = tested on: galium (catchweed bedstraw, Galium aparine); test: Test A postemergence, galium; settings: 0 to 100 scale, 0 no effect, 100 complete control
Method in brief: as §1

rice (Oryza sativa) = test: Test B flooded paddy test, rice; settings: Flood, 250 g ai/ha, applied to paddy water, 2-leaf stage, visual evaluation after 13 to 15 d
Method in brief: (§2)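 Application was made into paddy water of pots flooded 3 cm deep at treatment, with seedlings at the 2-leaf stage. That flood level was kept throughout, and plants stayed under glass 13 to 15 d before visual assessment on a 0–100 control scale.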

[16] = tested on: sedge, umbrella (small-flower umbrella sedge, Cyperus difformis); test: Test B flooded paddy test, umbrella sedge; settings: Flood, 250 g ai/ha, applied to paddy water, 2-leaf stage, visual evaluation after 13 to 15 d
Method in brief: as §2

[17] = tested on: ducksalad (Heteranthera limosa); test: Test B flooded paddy test, ducksalad; settings: Flood, 250 g ai/ha, applied to paddy water, 2-leaf stage, visual evaluation after 13 to 15 d
Method in brief: as §2

[18] = tested on: barnyardgrass (Echinochloa crus-galli); test: Test B flooded paddy test, barnyardgrass; settings: Flood, 250 g ai/ha, applied to paddy water, 2-leaf stage, visual evaluation after 13 to 15 d
Method in brief: as §2

| Compound | Barnyardgrass plant response rating ([1]; 125 g ai/ha) | Barnyardgrass plant response rating ([1]; 500 g ai/ha) | Kochia plant response rating (kochia (Kochia scoparia) [2]; 125 g ai/ha) | Kochia plant response rating (kochia (Kochia scoparia) [2]; 500 g ai/ha) | Ragweed plant response rating ([3]; 125 g ai/ha) | Ragweed plant response rating ([3]; 500 g ai/ha) | Ryegrass, Italian plant response rating ([4]; 125 g ai/ha) | Ryegrass, Italian plant response rating ([4]; 500 g ai/ha) | Foxtail, Giant plant response rating ([5]; 125 g ai/ha) | Foxtail, Giant plant response rating ([5]; 500 g ai/ha) | Pigweed plant response rating ([6]; 125 g ai/ha) | Pigweed plant response rating ([6]; 500 g ai/ha) | Plant response rating, Barnyardgrass ([7]; 125 g ai/ha) | Plant response rating, Barnyardgrass ([7]; 500 g ai/ha) | Plant response rating, Kochia (kochia (Kochia scoparia) [8]; 125 g ai/ha) | Plant response rating, Kochia (kochia (Kochia scoparia) [8]; 500 g ai/ha) | Plant response rating, Ragweed ([9]; 125 g ai/ha) | Plant response rating, Ragweed ([9]; 500 g ai/ha) | Plant response rating, Ryegrass, Italian ([10]; 125 g ai/ha) | Plant response rating, Ryegrass, Italian ([10]; 500 g ai/ha) | other results |
| --- | --- | --- | --- | --- | --- | --- | --- | --- | --- | --- | --- | --- | --- | --- | --- | --- | --- | --- | --- | --- | --- |
| Nc1nc(NC(c2cc3ccccc3o2)C2CC2)ncc1C(F)(F)F (stereo not drawn) [Compound 89] | 0 | 0 | 0 | 0 | 0 | 20 | 0 | 0 | 0 | 0 | 0 | 0 | 0 | 0 | 0 | 0 | 0 | 0 | 0 | 0 | Plant response rating, Foxtail, Giant ([11]; 125 g ai/ha): 0; Plant response rating, Foxtail, Giant ([11]; 500 g ai/ha): 0; Plant response rating, Pigweed ([12]; 125 g ai/ha): 0; Plant response rating, Pigweed ([12]; 500 g ai/ha): 0; Plant response rating, Wheat ([13]; 125 g ai/ha): 0; Plant response rating, Wheat ([13]; 500 g ai/ha): 0; Plant response rating, Corn (corn (Zea mays); 125 g ai/ha): 0; Plant response rating, Corn (corn (Zea mays); 500 g ai/ha): 0; Plant response rating, Blackgrass ([14]; 125 g ai/ha): 0; Plant response rating, Blackgrass ([14]; 500 g ai/ha): 0; Plant response rating, Galium ([15]; 125 g ai/ha): 0; Plant response rating, Galium ([15]; 500 g ai/ha): 0; Plant response rating, Rice (0 to 100 scale, 0 is no effect, 100 is complete control) (rice (Oryza sativa)): 0; Plant response rating, Sedge, Umbrella (0 to 100 scale, 0 is no effect, 100 is complete control) [16]: 95; Plant response rating, Ducksalad (0 to 100 scale, 0 is no effect, 100 is complete control) [17]: 30; Plant response rating, Barnyardgrass (0 to 100 scale, 0 is no effect, 100 is complete control) [18]: 30 |
| CC[C@@H](Nc1ncc(C(F)(F)F)c(N)n1)c1cc2ccc(F)cc2o1 [Compound 63] | 70 | 100 | 80 | 100 | 50 | 100 | 40 | 90 | 60 | 100 | 90 | 100 | 30 | 60 | 80 | 90 | 30 | 60 | 0 | 0 | Plant response rating, Foxtail, Giant ([11]; 125 g ai/ha): 20; Plant response rating, Foxtail, Giant ([11]; 500 g ai/ha): 90; Plant response rating, Pigweed ([12]; 125 g ai/ha): 100; Plant response rating, Pigweed ([12]; 500 g ai/ha): 100; Plant response rating, Wheat ([13]; 125 g ai/ha): 0; Plant response rating, Wheat ([13]; 500 g ai/ha): 0; Plant response rating, Corn (corn (Zea mays); 125 g ai/ha): 0; Plant response rating, Corn (corn (Zea mays); 500 g ai/ha): 10; Plant response rating, Blackgrass ([14]; 125 g ai/ha): 0; Plant response rating, Blackgrass ([14]; 500 g ai/ha): 20; Plant response rating, Galium ([15]; 125 g ai/ha): 50; Plant response rating, Galium ([15]; 500 g ai/ha): 90; Plant response rating, Rice (0 to 100 scale, 0 is no effect, 100 is complete control) (rice (Oryza sativa)): 0; Plant response rating, Sedge, Umbrella (0 to 100 scale, 0 is no effect, 100 is complete control) [16]: 80; Plant response rating, Ducksalad (0 to 100 scale, 0 is no effect, 100 is complete control) [17]: 75; Plant response rating, Barnyardgrass (0 to 100 scale, 0 is no effect, 100 is complete control) [18]: 45 |
